Laboratory results published in patent publication US11090304B2 (Amgen Inc., priority 2018, dated 2021).

Legend:
[1] = biological target: GDP-bound KRAS protein (aa 1-169), containing both G12C and C118A amino acid substitutions (Homo sapiens, UniProt P01116, C118A/G12C); assay: Coupled nucleotide exchange assay (SOS-mediated, AlphaScreen); type: biochemical; conditions: 5 min compound pre-incubation
[2] = system: Phosphorylation of ERK1/2 in MIA PaCa-2 cells; assay: Phospho-ERK1/2 MSD assay in MIA PaCa-2 cells; type: cell-based; conditions: Homo sapiens, MIA PaCa-2, 2 h, read-out: p-ERK IC50 (2 h; MIA PaCa-2), 2 h compound treatment
Outline: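 MIA PaCa-2 or A549 cells were treated with a compound dose-response titration for 2 or 4 h at 37 °C, then stimulated with 10 ng/mL EGF for 10 min. Phospho-ERK1/2 in RIPA lysates was measured by MSD whole-cell lysate immunoassay, and IC50 came from a 4-parameter logistic fit.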

Chain of GDP-bound KRAS protein (aa 1-169), containing both G12C and C118A amino acid substitutions (P01116 1-169 isoform P01116-2 G12C/C118A): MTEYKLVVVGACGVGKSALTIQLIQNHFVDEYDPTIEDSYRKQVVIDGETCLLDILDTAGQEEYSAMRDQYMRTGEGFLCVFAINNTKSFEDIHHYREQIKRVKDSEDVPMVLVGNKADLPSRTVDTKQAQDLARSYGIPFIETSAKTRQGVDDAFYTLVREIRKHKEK

Question: Which “Coupled exchange IC50 (5 min)” value [1] does the source give for `C=CC(=O)N1CCN(c2nc(=O)n(-c3c(C)ccnc3CC)c3nc(-c4c(O)cccc4F)c(Cl)cc23)[C@@H](C)C1` [Example 55-10, 6-chloro-1-(2-ethyl-4-methyl-3-pyridinyl)-7-(2-fluoro-6-hydroxyphenyl)-4-((2S)-2-methyl-4-(2-propenoyl)-1-piperazinyl)pyrido[2,3-d]pyrimidin-2(1H)-one] here?
Answer: 0.123 | nda μM

Question: And the IC50 [2]?
Answer: 156 nM

Question: With `C=CC(=O)N1CCN(c2nc(=O)n(-c3c(C)noc3C(C)C)c3nc(-c4ccccc4F)c(Cl)cc23)[C@@H](C)C1` [Example 55-11, 6-chloro-7-(2-fluoropheny)-1-(3-methyl-5-(2-propanyl)-1,2-oxazol-4-yl)-4-((2S)-2-methyl-4-(2-propenoyl)-1-piperazinyl)pyrido[2,3-d]pyrimidin-2(1H)-one] as the molecule, how does the “Coupled exchange IC50 (5 min)” value [1] read?
Answer: 0.309 | nda μM

Question: And the IC50 [2]?
Answer: 235 nM

Question: What does the source list for `C=CC(=O)N1CCN(c2nc(=O)n(-c3c(C)noc3C(C)C)c3nc(-c4ccc(F)cc4F)c(Cl)cc23)[C@@H](C)C1` [Example 55-12, 6-chloro-7-(2,4-difuorophenyl)-1-(3-methyl-5-(2-propanyl)-1,2-oxazol-4-yl)-4-((2S)-2-methyl-4-(2-propenoyl)-1-piperazinyl)pyrido[2,3-d]pyrimidin-2(1H)-one]?
Answer: Coupled exchange IC50 (5 min) [1]: 0.583 | nda μM; IC50 [2]: 775 nM

Question: What does the source list for `C=CC(=O)N1CCN(c2nc(=O)n(-c3c(C)ncnc3C(C)C)c3nc(-c4ccccc4F)c(Cl)cc23)[C@@H](C)C1` [Example 55-13, 6-chloro-7-(2-fluorophenyl)-1-(4-methyl-6-(2-propanyl)-5-pyrimidinyl)-4-((2S)-2-methyl-4-(2-propenoyl)-1-piperazinyl)pyrido[2,3-d]pyrimidin-2(1H)-one]?
Answer: Coupled exchange IC50 (5 min) [1]: 0.191 | nda μM; IC50 [2]: 179 nM

Question: Which “Coupled exchange IC50 (5 min)” value [1] does the source give for `C=CC(=O)N1CCN(c2nc(=O)n(-c3c(C)cccc3C3CC3)c3nc(-c4c(O)cccc4F)c(Cl)cc23)[C@@H](C)C1` [Example 55-15, 6-chloro-1-(2-cyclopropyl-6-methylphenyl)-7-(2-fluoro-6-hydroxyphenyl)-4-((2S)-2-methyl-4-(2-propenoyl)-1-piperazinyl)pyrido[2,3-d]pyrimidin-2(1H)-one] here?
Answer: 0.055 | nda μM

Question: What about the IC50 [2] of the same molecule?
Answer: 92 nM

Question: `C=CC(=O)N1CCN(c2nc(=O)n(-c3c(C)cc(N(C)C)cc3C(C)C)c3nc(-c4ccccc4F)c(Cl)cc23)[C@@H](C)C1` [Example 55-16, 6-chloro-1-(4-(dimethylamino)-2-methyl-6-(2-propanyl)phenyl)-7-(2-fluorophenyl)-4-((2S)-2-methyl-4-(2-propenoyl)-1-piperazinyl)pyrido[2,3-d]pyrimidin-2(1H)-one] was tested. Which “Coupled exchange IC50 (5 min)” value [1] did it give?
Answer: 0.154 | nda μM

Question: And the IC50 [2]?
Answer: 199 nM

Question: `C=CC(=O)N1CCN(c2nc(=O)n(-c3ncsc3C(C)C)c3nc(-c4c(O)cccc4F)c(Cl)cc23)[C@@H](C)C1` [Example 55-17, 6-chloro-7-(2-fluoro-6-hydroxyphenyl)-4-((2S)-2-methyl-4-(2-propenoyl)-1-piperazinyl)-1-(5-(2-propanyl)-1,3-thiazol-4-yl)pyrido[2,3-d]pyrimidin-2(1H)-one] was tested. Which “Coupled exchange IC50 (5 min)” value [1] did it give?
Answer: 0.18 | nda μM

Question: What about the IC50 [2] of the same molecule?
Answer: 123 nM

Question: `C=CC(=O)N1CCN(c2nc(=O)n(-c3scnc3C(C)C)c3nc(-c4ccccc4F)c(Cl)cc23)[C@@H](C)C1` [Example 55-18, 6-chloro-7-(2-fluorophenyl)-4-((2S)-2-methyl-4-(2-propenoyl)-1-piperazinyl)-1-(4-(2-propanyl)-1,3-thiazol-5-yl)pyrido[2,3-d]pyrimidin-2(1H)-one] was tested. Which “Coupled exchange IC50 (5 min)” value [1] did it give?
Answer: 0.067 | nda μM

Question: And the IC50 [2]?
Answer: 83 nM

Question: Which results are given for `C=CC(=O)N1CCN(c2nc(=O)n(-c3ncsc3C(C)C)c3nc(-c4ccccc4F)c(Cl)cc23)[C@@H](C)C1` [Example 55-19, 6-chloro-7-(2-fluorophenyl)-4-((2S)-2-methyl-4-(2-propenoyl)-1-piperazinyl)-1-(5-(2-propanyl)-1,3-thiazol-4-yl)pyrido[2,3-d]pyrimidin-2(1H)-one]?
Answer: Coupled exchange IC50 (5 min) [1]: 0.22 | nda μM; IC50 [2]: 191 nM

Question: `C=CC(=O)N1CCN(c2nc(=O)n(-c3cn(Cc4ccccc4)nc3C3CC3)c3nc(-c4c(O)cccc4F)c(Cl)cc23)[C@@H](C)C1` [Example 55-20, 1-(1-benzyl-3-cyclopropyl-1H-pyrazol-4-yl)-6-chloro-7-(2-fluoro-6-hydroxyphenyl)-4-((2S)-2-methyl-4-(2-propenoyl)-1-piperazinyl)pyrido[2,3-d]pyrimidin-2(1H)-one] was tested. Which “Coupled exchange IC50 (5 min)” value [1] did it give?
Answer: 0.695 | nda μM

Question: What about the IC50 [2] of the same molecule?
Answer: 2670 nM

Question: `C=CC(=O)N1CCN(c2nc(=O)n(-c3c[nH]nc3C3CC3)c3nc(-c4c(O)cccc4F)c(Cl)cc23)[C@@H](C)C1` [Example 55-21, 6-chloro-1-(3-cyclopropyl-1H-pyrazol-4-yl)-7-(2-fluoro-6-hydroxyphenyl)-4-((2S)-2-methyl-4-(2-propenoyl)-1-piperazinyl)pyrido[2,3-d]pyrimidin-2(1H)-one] was tested. Which “Coupled exchange IC50 (5 min)” value [1] did it give?
Answer: 0.444 | nda μM

Question: What about the IC50 [2] of the same molecule?
Answer: ≥ 10000 nM

Question: What does the source list for `C=CC(=O)N1CCN(c2nc(=O)n(-c3c(CC)cncc3CC)c3nc(-c4ccccc4F)c(Cl)cc23)[C@@H](C)C1` [Example 55-22, 6-chloro-1-(3,5-diethyl-4-pyridinyl)-7-(2-fluorophenyl)-4-((2S)-2-methyl-4-(2-propenoyl)-1-piperazinyl)pyrido[2,3-d]pyrimidin-2(1H)-one]?
Answer: Coupled exchange IC50 (5 min) [1]: 0.653 | nda μM; IC50 [2]: 303 nM

Question: Which results are given for `C=CC(=O)N1CCN(c2nc(=O)n(-c3nccnc3C(C)(C)C)c3nc(-c4c(O)cccc4F)c(Cl)cc23)[C@@H](C)C1` [Example 55-23]?
Answer: Coupled exchange IC50 (5 min) [1]: 0.208 | nda μM; IC50 [2]: 260 nM

Question: Which “Coupled exchange IC50 (5 min)” value [1] does the source give for `C=CC(=O)N1CCN(c2nc(=O)n(-c3ncccc3C(=C)C)c3nc(-c4c(O)cccc4F)c(Cl)cc23)[C@@H](C)C1` [Example 55-24, 6-chloro-7-(2-fluoro-6-hydroxyphenyl)-4-((2S)-2-methyl-4-(2-propenoyl)-1-piperazinyl)-1-(3-(1-propen-2-yl)-2-pyridinyl)pyrido[2,3-d]pyrimidin-2(1H)-one] here?
Answer: 0.113 | nda μM

Question: And the IC50 [2]?
Answer: 74 nM

Question: With `C=CC(=O)N1CCN(c2nc(=O)n(-c3c(O)cccc3C(C)C)c3nc(-c4ccccc4F)c(Cl)cc23)[C@@H](C)C1` [Example 55-26, 6-chloro-7-(2-fluorophenyl)-1-(2-hydroxy-6-(2-propanyl)phenyl)-4-((2S)-2-methyl-4-(2-propenoyl)-1-piperazinyl)pyrido[2,3-d]pyrimidin-2(1H)-one] as the molecule, how does the “Coupled exchange IC50 (5 min)” value [1] read?
Answer: 0.091 | nda μM

Question: What about the IC50 [2] of the same molecule?
Answer: 215 nM

Question: With `C=CC(=O)N1CCN(c2nc(=O)n(-c3c(CC)ncnc3CC)c3nc(-c4c(O)cccc4F)c(Cl)cc23)[C@@H](C)C1` [Example 55-31, 6-chloro-1-(4,6-diethyl-5-pyrimidinyl)-7-(2-fluoro-6-hydroxyphenyl)-4-((2S)-2-methyl-4-(2-propenoyl)-1-piperazinyl)pyrido[2,3-d]pyrimidin-2(1H)-one] as the molecule, how does the “Coupled exchange IC50 (5 min)” value [1] read?
Answer: 0.098 | nda μM

Question: And the IC50 [2]?
Answer: 79 nM

Question: What does the source list for `C=CC(=O)N1CCN(c2nc(=O)n(-c3c(CC)ncnc3CC)c3nc(-c4ccc(F)cc4F)c(Cl)cc23)[C@@H](C)C1` [Example 55-35, 6-chloro-1-(4,6-diethyl-5-pyrimidinyl)-7-(2,4-difluorophenyl)-4-((2S)-2-methyl-4-(2-propenoyl)-1-piperazinyl)pyrido[2,3-d]pyrimidin-2(1H)-one]?
Answer: Coupled exchange IC50 (5 min) [1]: 0.225 | nda μM; IC50 [2]: 252 nM

Question: With `C=CC(=O)N1CCN(c2nc(=O)n(-c3c(C(C)C)nc(OC)nc3C(C)C)c3nc(-c4ccccc4F)c(Cl)cc23)[C@@H](C)C1` [Example 55-37, 6-chloro-7-(2-fluorophenyl)-1-(2-methoxy-4,6-di(2-propanyl)-5-pyrimidinyl)-4-((2S)-2-methyl-4-(2-propenoyl)-1-piperazinyl)pyrido[2,3-d]pyrimidin-2(1H)-one] as the molecule, how does the “Coupled exchange IC50 (5 min)” value [1] read?
Answer: 0.03 | nda μM

Question: And the IC50 [2]?
Answer: 57 nM

Question: Which “Coupled exchange IC50 (5 min)” value [1] does the source give for `C=CC(=O)N1CCN(c2nc(=O)n(-c3c(C)ncnc3C(C)C)c3nc(-c4cc(F)ccc4F)c(Cl)cc23)[C@@H](C)C1` [Example 55-39, 6-chloro-7-(2,5-difluorophenyl)-1-(4-methyl-6-(2-propanyl)-5-pyrimidinyl)-4-((2S)-2-methyl-4-(2-propenoyl)-1-piperazinyl)pyrido[2,3-d]pyrimidin-2(1H)-one] here?
Answer: 0.292 | nda μM

Question: What about the IC50 [2] of the same molecule?
Answer: 271 nM

Question: What does the source list for `C=CC(=O)N1CCN(c2nc(=O)n(-c3c(C)ncnc3C(C)C)c3nc(-c4cc(C)ccc4F)c(Cl)cc23)[C@@H](C)C1` [Example 55-40, 6-chloro-7-(2-fluoro-5-methylphenyl)-1-(4-methyl-6-(2-propanyl)-5-pyrimidinyl)-4-((2S)-2-methyl-4-(2-propenoyl)-1-piperazinyl)pyrido[2,3-d]pyrimidin-2(1H)-one]?
Answer: Coupled exchange IC50 (5 min) [1]: 0.1 | nda μM; IC50 [2]: 149 nM

Question: `C=CC(=O)N1CCN(c2nc(=O)n(-c3ncnn3C(C)C)c3nc(-c4ccccc4F)c(Cl)cc23)[C@@H](C)C1` [Example 55-41, 6-chloro-7-(2-fluorophenyl)-4-((2S)-2-methyl-4-(2-propenoyl)-1-piperazinyl)-1-(1-(2-propanyl)-1H-1,2,4-triazol-5-yl)pyrido[2,3-d]pyrimidin-2(1H)-one] was tested. Which “Coupled exchange IC50 (5 min)” value [1] did it give?
Answer: 0.292 | nda μM

Question: And the IC50 [2]?
Answer: 908 nM

Question: How did the “Coupled exchange IC50 (5 min)” value [1] turn out when `C=CC(=O)N1CCN(c2nc(=O)n(-c3c(CO)cccc3C(C)C)c3nc(-c4ccccc4F)c(Cl)cc23)[C@@H](C)C1` [Example 55-43, 6-chloro-7-(2-fluorophenyl)-1-(2-(hydroxymethyl)-6-(2-propanyl)phenyl)-4-((2S)-2-methyl-4-(2-propenoyl)-1-piperazinyl)pyrido[2,3-d]pyrimidin-2(1H)-one] was run?
Answer: 0.073 | nda μM

Question: And the IC50 [2]?
Answer: 70 nM
